# Like-named read-outs stand apart in the source and are kept apart here.
# What was measured:
# K. pneumoniae B88 [1] = experiment: Minimum filamentation / spheroplasting concentration; details: Klebsiella pneumoniae, B88
# Description: (§7) The term “MSC” as used herein refers to minimum spheroplasting concentration, which is the minimum concentration of an antibacterial agent at which about 80% of bacterial cells covert into spheroplasts.
# (§8) The term “MFC” as used herein refers to minimum filamentation concentration, which is the minimum concentration of an antibacterial agent at which about 80% of bacterial cells get elongated to form filament like structures.
# Pseudomonas PBP 3 = molecular target: T1, Pseudomonas PBP 3 (Pseudomonas aeruginosa, UniProt G3XD46); experiment: biochemical; format: binding
# T1 construct: endogenous in cells
# Protocol: The phrase “selective and high affinity PBP binder” refers to a PBP binder which binds to only one PBP with very high affinity. In general, the term “selective and high affinity PBP binder” also includes those binders where a substantial fraction of binder selectively binds to only one PBP with high affinity.
# The reaction mixtures were then denatured with 20 μl each of SDS-denaturing solution at 100° C. for 3 min PBPs were separated through 10% SDS polyacrylamide gel electrophoresis (Bio-Rad Laboratories, Hercules, Calif.). The protein gels were rinsed in water immediately after electrophoresis.
# P. mirabilis G 186 [2] = experiment: Minimum filamentation / spheroplasting concentration; details: Proteus mirabilis, G186
# Description: as §7, §8
# [3] = tested on: MDR P. mirabilis G 186 producing NDM & TEM β-lactamases; experiment: Time kill study at MFC and MSC; format: cell-based; details: for Bacterial count: Cefepime 8 mcg/ml (MFC), Compound of Formula (III) 0.25 mcg/ml (MSC), Imepenem 8 mcg/ml
# Protocol: (§1) The synergistic killing effect of the combinations according to invention was studied by performing time kill studies. In a typical time kill study, the freshly grown cultures were diluted to the required cell density (initial starting inoculum) in Cation adjusted Muller Hinton broth medium (BD, USA). The antibacterial agents (either alone or in combination) at the required concentrations were added into the culture-containing medium. The samples were incubated under shaking condition (120 rpm) at 37° C. Enumeration of viable bacterial count was done every 2 hour by diluting in normal saline and plating on to the Tryptic Soya Agar plates (BD, USA). The plates were incubated for 24 hours to arrive at the viable bacterial count. The results are expressed in terms of Log CFU per ml. In general, the decrease of 1 Log CFU/ml, corresponds to 90% killing of bacteria. Similarly, 2 Log CFU/ml reductions indicates to 99% killing of bacteria and 3 Log CFU/ml reductions is equal to 99.9% killing of bacteria.
# [4] = tested on: MDR Klebsiella pneumoniae B 88 producing NDM, SHV & TEM beta-lactamases; experiment: Time kill study at MFC and MSC; format: cell-based; details: for Bacterial count: Cefepime 8 mcg/ml (MFC), Compound of Formula (III) 0.12 mcg/ml (MSC), Imepenem 8 mcg/ml
# Protocol: as §1
# Pseudomonas PBP 5/6 = Pseudomonas PBP 5/6 (Pseudomonas aeruginosa, UniProt G3XD74); experiment: PBP binding assay (Bocillin FL competition)
# Protocol: (§2) The phrase “selective and high affinity PBP binder” refers to a PBP binder which binds to only one PBP with very high affinity. In general, the term “selective and high affinity PBP binder” also includes those binders where a substantial fraction of binder selectively binds to only one PBP with high affinity. […]. The term “IC50 value” of a compound refers to the concentration of the compound that reduces the binding of Bocillin-FL to PBPs by 50% as compared to when no compound was added to the reaction.
# (§3) A compound of Formula (III) was prepared using the procedure disclosed in PCT International Application No. PCT/IB2012/054290 and was evaluated for its PBP binding affinity profile. […] The reaction mixtures were then denatured with 20 μl each of SDS-denaturing solution at 100° C. for 3 min PBPs were separated through 10% SDS polyacrylamide gel electrophoresis (Bio-Rad Laboratories, Hercules, Calif.). The protein gels were rinsed in water immediately after electrophoresis. […] […].
# Pseudomonas PBP 1A = molecular target: T2, Pseudomonas PBP 1A (Pseudomonas aeruginosa, UniProt Q07806); experiment: PBP binding assay (Bocillin FL competition)
# T2 construct: endogenous in cells
# Protocol: as §2, §3
# P. mirabilis G 186 [5] = experiment: MIC determination; format: cell-based; details: Proteus mirabilis, G186; P. mirabilis G 186 (NDM, TEM)
# Protocol: (§4) In a typical procedure for determining MIC values, overnight grown bacterial cultures were diluted appropriately and inoculated on the agar media containing doubling concentrations of the test compounds. Observation for growth or no growth was performed after 16-20 hours of incubation at 35±2° C. in ambient air. The overall procedure was performed as per Clinical and Laboratory Standards Institute (CLSI) recommendations (Clinical and Laboratory Standards Institute (CLSI), Performance Standards for Antimicrobial Susceptibility Testing, 20th Informational Supplement, M 100-S20, Volume 30, No. 1, 2010).
# K. pneumoniae B88 [6] = experiment: MIC determination; format: cell-based; details: Klebsiella pneumoniae; K. pneumoniae B88 (NDM, SHV, TEM)
# Protocol: as §4
# [7] = tested on: Pseudomonas aeruginosa NCTC 13437 producing carbapenem hydrolyzing MBL (VIM 10) & Class A (VEB1); experiment: Time kill study (viability count); format: cell-based; details: Cefepime 8 μg/ml, Compound of Formula (III) 8 μg/ml, Imipenem 16 μg/ml
# Protocol: (§5) The antibacterial effectiveness of various antibacterial agents in presence of a compound of Formula (III) was investigated and the results are detailed below. In a typical study, overnight cultures in Trypticase soya broth (TSB) were brought to log phase by 1 in 10 dilution in fresh cation adjusted Mueller Hinton Broth (MHB) and incubation for 2.5 hours at 35° C. in orbital shaker. Log phase cultures were diluted to desired inoculums in flasks with MHB, containing various drug concentrations. Flasks were incubated at 35° C. in orbital shaker with rotational speed of 125 rpm. Viability count was determined by 1 in 10 serial dilutions of samples in normal saline and surface spreading of 10 μl of dilutions in duplicate on Trypticase soya agar plates. Plates were incubated for 24 hours at 35° C. and colonies were enumerated to determine the colony forming units (CFU) per ml volume.
# [8] = tested on: Acinetobacter baumannii NCTC 13304 producing carbapenem hydrolyzing Class D OXA enzyme (OXA 27); experiment: Time kill study (viability count); format: cell-based; details: Cefepime 8 μg/ml, Compound of Formula (III) 8 μg/ml, Imipenem 16 μg/ml
# Protocol: as §5
# [9] = tested on: ESBL enzymes from K. pneumoniae S48 producing Metalo betalactamase (NDM4) and Class A (CTX-M, SHV, TEM) beta-lactamase; experiment: Beta-lactamase stability study (crude enzyme extract, then drug diffusion assay on E. coli ATCC 25922); format: biochemical; details: for Inhibition zone diameter after treatment with beta-lactamase enzyme: 40 μg/ml, zone on E. coli ATCC 25922
# Protocol: (§6) Next, the beta-lactamase stability of some of these compounds was evaluated. In a typical stability study, ESBL enzymes from K. pneumoniae S48 producing Metalo betalactamase (NDM4) and Class A (CTX-M, SHV, TEM) beta-lactamase were isolated from freshly grown culture by 5 repetitive cycles of freeze and thaw in liquid nitrogen. […] After the stipulated incubation duration, the test compounds were extracted from the reaction mixture by the addition of 0.5 ml of Acetonitrile in 1:1 ratio (final concentration of test compound—40 μg/ml) and centrifuged at 12000 rpm for 2 min to separate precipitated protein. The activity of test compounds was measured from the supernatant by performing microbiological drug diffusion assay. For drug diffusion assay, Muller-Hinton Agar (MHA) seeded with E. coli ATCC 25922 was poured on to a bioassay plate placed on a flat surface and allowed to solidify. Appropriate concentration of the standalone and enzyme treated test compound dilutions were added to 6 mm wells cut with the help of a borer. The antibacterial activity of the test compounds was measured in terms of zones of inhibition appearing after 18-24 hours of incubation at 37° C. Measurement of diameter of zone of inhibition was undertaken to the nearest whole value with the help of ruler.
# E. coli ATCC 25922 = experiment: Microbiological drug diffusion assay, standalone compounds in absence of beta-lactamase enzymes; format: cell-based; details: Escherichia coli, read-out: Inhibition zone diameter
# Protocol: as §6
# K pneumoniae J 101 = experiment: MIC determination (agar dilution, CLSI); format: cell-based; details: K pneumoniae J 101 (TEM1, SHV12, OMP); standalone
# Protocol: as §4
# K pneumoniae J 104 = experiment: MIC determination (agar dilution, CLSI); format: cell-based; details: K pneumoniae J 104 (TEM1, SHV11, CTX-M, OMP); standalone
# Protocol: as §4
# K pneumoniae J 102 = experiment: MIC determination (agar dilution, CLSI); format: cell-based; details: K pneumoniae J 102 (TEM1, SHV5, OMP); standalone
# Protocol: as §4
# K pneumoniae J 105 = experiment: MIC determination (agar dilution, CLSI); format: cell-based; details: K pneumoniae J 105 (TEM1, SHV2, CTX-M, OMP); standalone
# Protocol: as §4
# Sequence of Pseudomonas PBP 5/6 (G3XD74 entry or part of it): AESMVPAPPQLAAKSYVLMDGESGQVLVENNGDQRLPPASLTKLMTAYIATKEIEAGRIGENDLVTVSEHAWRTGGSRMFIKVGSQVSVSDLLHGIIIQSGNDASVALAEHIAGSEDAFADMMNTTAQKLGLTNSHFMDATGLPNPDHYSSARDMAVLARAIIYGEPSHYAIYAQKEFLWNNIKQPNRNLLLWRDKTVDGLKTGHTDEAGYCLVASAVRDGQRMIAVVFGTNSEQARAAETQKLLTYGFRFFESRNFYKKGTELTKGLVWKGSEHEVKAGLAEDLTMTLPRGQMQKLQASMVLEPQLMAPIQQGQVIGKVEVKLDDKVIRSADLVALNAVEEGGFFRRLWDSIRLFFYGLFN
# T2 sequence (Q07806 whole entry): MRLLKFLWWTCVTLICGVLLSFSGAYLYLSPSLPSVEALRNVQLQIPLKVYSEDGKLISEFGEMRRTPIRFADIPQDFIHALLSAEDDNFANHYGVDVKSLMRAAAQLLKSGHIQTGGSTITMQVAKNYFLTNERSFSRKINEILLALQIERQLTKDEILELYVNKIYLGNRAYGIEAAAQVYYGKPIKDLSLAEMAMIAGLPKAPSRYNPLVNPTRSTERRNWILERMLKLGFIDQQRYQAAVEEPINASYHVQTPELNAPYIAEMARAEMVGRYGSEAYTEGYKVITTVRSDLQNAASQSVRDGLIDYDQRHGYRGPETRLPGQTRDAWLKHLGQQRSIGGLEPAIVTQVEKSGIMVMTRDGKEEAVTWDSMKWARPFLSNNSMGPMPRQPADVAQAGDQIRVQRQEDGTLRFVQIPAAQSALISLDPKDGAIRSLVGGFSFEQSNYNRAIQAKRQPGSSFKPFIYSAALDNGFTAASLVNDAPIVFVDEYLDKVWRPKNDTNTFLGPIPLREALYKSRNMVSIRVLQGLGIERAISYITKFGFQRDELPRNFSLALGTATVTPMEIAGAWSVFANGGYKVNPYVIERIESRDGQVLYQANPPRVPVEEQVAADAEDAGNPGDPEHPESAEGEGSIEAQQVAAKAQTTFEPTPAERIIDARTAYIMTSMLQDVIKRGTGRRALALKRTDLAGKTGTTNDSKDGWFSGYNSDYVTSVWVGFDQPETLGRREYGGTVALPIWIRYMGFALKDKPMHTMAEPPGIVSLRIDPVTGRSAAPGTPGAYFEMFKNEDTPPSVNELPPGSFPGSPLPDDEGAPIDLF
# T1 sequence (G3XD46 whole entry): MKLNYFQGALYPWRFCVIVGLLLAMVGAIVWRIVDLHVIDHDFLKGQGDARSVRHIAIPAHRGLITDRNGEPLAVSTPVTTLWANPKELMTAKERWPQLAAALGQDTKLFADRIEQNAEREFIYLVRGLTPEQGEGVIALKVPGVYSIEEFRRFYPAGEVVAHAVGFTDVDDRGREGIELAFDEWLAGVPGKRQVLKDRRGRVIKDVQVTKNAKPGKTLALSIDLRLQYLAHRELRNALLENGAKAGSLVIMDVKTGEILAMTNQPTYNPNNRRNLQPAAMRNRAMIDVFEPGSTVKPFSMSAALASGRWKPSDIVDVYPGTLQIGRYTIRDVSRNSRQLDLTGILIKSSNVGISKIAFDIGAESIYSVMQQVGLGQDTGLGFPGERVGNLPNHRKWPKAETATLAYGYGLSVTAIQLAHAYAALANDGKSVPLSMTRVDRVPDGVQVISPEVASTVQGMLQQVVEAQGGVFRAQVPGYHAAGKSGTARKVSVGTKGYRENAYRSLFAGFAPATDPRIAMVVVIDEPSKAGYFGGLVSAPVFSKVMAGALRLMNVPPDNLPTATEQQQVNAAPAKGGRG
structure (smiles),measurement,setting,value
CO/N=C(\C(=O)N[C@@H]1C(=O)N2C(C(=O)[O-])=C(C[N+]3(C)CCCC3)CS[C@H]12)c1csc(N)n1 [Cefepime],MFC,K. pneumoniae B88 [1],8 µg/mL
same,IC50,Pseudomonas PBP 3,312 nM
same,MFC,P. mirabilis G 186 [2],8 µg/mL
same,Bacterial count,[3]; 0 hour,6.58 Log10 CFU/ml
same,Bacterial count,[3]; 2 hours,6.04 Log10 CFU/ml
same,Bacterial count,[3]; 4 hours,7.93 Log10 CFU/ml
same,Bacterial count,[3]; 6 hours,8.66 Log10 CFU/ml
same,Bacterial count,[3]; 8 hours,8.85 Log10 CFU/ml
same,Antibacterial activity (in words),"[3]; P. mirabilis G 186, at MFC and MSC concentration, Table 14",did not exhibit antibacterial activity
same,Bacterial count,[4]; 0 hour,6.14 Log10 CFU/ml
same,Bacterial count,[4]; 2 hours,6.65 Log10 CFU/ml
same,Bacterial count,[4]; 4 hours,8.30 Log10 CFU/ml
same,Bacterial count,[4]; 6 hours,9.11 Log10 CFU/ml
same,Bacterial count,[4]; 8 hours,9.04 Log10 CFU/ml
same,Antibacterial activity (in words),"[4]; Klebsiella pneumoniae B 88, at MFC and MSC concentration, Table 13",did not exhibit antibacterial activity
same,IC50,Pseudomonas PBP 5/6,> 8320 nM
same,IC50,"Pseudomonas PBP 1A; Pseudomonas PBP 1A, read-out: IC50 (converted)",250 nM
same,MIC,P. mirabilis G 186 [5],> 64 µg/mL
same,MIC,K. pneumoniae B88 [6],> 64 µg/mL
same,Bacterial count,[7]; 0 hour,6.0 log (CFU/ml)
same,Bacterial count,[7]; 2 hours,6.49 log (CFU/ml)
same,Bacterial count,[7]; 4 hours,7.74 log (CFU/ml)
same,Bacterial count,[7]; 6 hours,8.02 log (CFU/ml)
same,Bacterial count,[7]; 12 hours,8.8 log (CFU/ml)
same,Bacterial count,[8]; 0 hour,6.3 log (CFU/ml)
same,Bacterial count,[8]; 2 hours,7.3 log (CFU/ml)
same,Bacterial count,[8]; 4 hours,7.5 log (CFU/ml)
same,Bacterial count,[8]; 6 hours,7.8 log (CFU/ml)
same,Bacterial count,[8]; 8 hours,8.0 log (CFU/ml)
CC1(C)S[C@@H]2[C@H](/N=C/N3CCCCCC3)C(=O)N2[C@H]1C(=O)O [Mecillinam],Inhibition zone diameter after treatment with beta-lactamase enzyme,[9]; 0 hour incubation at 37° C.,15.5 mm
same,Inhibition zone diameter after treatment with beta-lactamase enzyme,[9]; 1 hour incubation at 37° C.,12 mm
same,Inhibition zone diameter after treatment with beta-lactamase enzyme,[9]; 2 hours incubation at 37° C.,0 mm
same,Inhibition zone diameter after treatment with beta-lactamase enzyme,[9]; 24 hours incubation at 37° C.,0 mm
same,Stability to beta-lactamase (in words),"[9]; carbapenem hydrolyzing metallo beta-lactamase, up to 24 hours",not stable to the beta-lactamase
same,zone of inhibition at 40 µg/mL,"E. coli ATCC 25922; ATCC25922, 0 h",15.5 mm
same,zone of inhibition at 40 µg/mL,"E. coli ATCC 25922; ATCC25922, 1 h",15.5 mm
same,zone of inhibition at 40 µg/mL,"E. coli ATCC 25922; ATCC25922, 2 h",15.5 mm
same,zone of inhibition at 40 µg/mL,"E. coli ATCC 25922; ATCC25922, 24 h",15.5 mm
same,IC50,Pseudomonas PBP 5/6; read-out: IC50,> 12300 nM
same,IC50,Pseudomonas PBP 1A,> 12300 nM
C[C@@H](O)[C@H]1C(=O)N2C(C(=O)O)=C(S[C@@H]3CN[C@H](C(=O)N(C)C)C3)[C@H](C)[C@H]12 [Meropenem],MIC,K pneumoniae J 101,4 µg/mL
same,MIC,K pneumoniae J 104,4 µg/mL
same,MIC,K pneumoniae J 102,8 µg/mL
same,MIC,K pneumoniae J 105,4 µg/mL

# From patent US20170172994A1, “COMPOSITIONS AND METHODS FOR TREATING BACTERIAL INFECTIONS” (WOCKHARDT LIMITED, priority 2013, published 2017)
